In patent US9428551B2, “Antimicrobial peptides” (priority 2009, dated 2016):

Assays:
[1] = system: Vancomycin resistant Enterococcus faecalis; experiment: MIC by micro-dilution (BSAC); type: cell-based
Streptococcus mutans = experiment: MIC by micro-dilution (BSAC); type: cell-based;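 further: MIC in µg/ml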
S. hominis = experiment: MIC by micro-dilution (BSAC); type: cell-based
S. epidermidis = experiment: MIC by micro-dilution (BSAC); type: cell-based;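 further: MIC in µg/ml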
S. warneri = experiment: MIC by micro-dilution (BSAC); type: cell-based
Bacillus cereus = experiment: MIC by micro-dilution (BSAC); type: cell-based
Listeria monocytogenes = experiment: MIC by micro-dilution (BSAC); type: cell-based
[2] = enzyme stability of the peptide (activity in AU/ml after enzyme treatment)
S. epidermidis s42 [3] = experiment: membrane potential, DiSC3(5) assay; type: cell-based; conditions: all concentrations assessed; levels exceeded positive control nisin 10×MIC
Text: (§1) Results are expressed as % of positive control and that NI01 causes concentration dependent release of potassium from indicator cells with 100% being released at the highest concentration of NI01 assessed (10×MIC).
In summary, mode of action studies, using DiSC3(5) [3,3′-Dipropylthiadicarbocyanine iodide] assays, indicate that NI01 depolarises the membrane (FIG. 12) of the a Staphylococcus epidermidis strain resulting in loss of potassium (FIG. 13) and ATP (FIG. 14).

pH stability = type: physicochemical
strain 156 biofilm = experiment: biofilm formation on peptide-coated polyethylene beads; type: cell-based, Staphylococcus epidermidis; conditions: beads submerged in semi-pure peptide 2 hours, inoculum 3×10^8 cfu/ml of strain 156, p=0.000
Enterococcus faecalis = experiment: MIC by micro-dilution (BSAC); type: cell-based
Propionibacterium acnes = experiment: spot on lawn method; type: cell-based; conditions: purified preparations of NI01, spot on lawn method
S. epidermidis s42 [4] = experiment: ATP release; type: cell-based; conditions: 10×MIC
MRSA (EMRSA 15) = experiment: MIC by micro-dilution (BSAC); type: cell-based;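 further: MIC in µg/ml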
Bacillus subtillis = experiment: MIC by micro-dilution (BSAC); type: cell-based
S. epidermidis s42 [5] = experiment: potassium release, K+ sensitive fluorescent dye PBFI; type: cell-based; conditions: highest concentration, 10×MIC
Text: as §1

[6] = system: reference strain RP62a, gentamicin resistant clinical isolate 53 and gentamicin sensitive isolate 156; experiment: single-step (spontaneous) mutation tests; type: cell-based, S. epidermidis; conditions: two, four and eight times the MIC; strains RP62a, 53 and 156; no evidence of mutation
S. epidermidis 156 = experiment: viability, optical density and Gram staining after addition of peptide; type: cell-based
S. saprophyticus = experiment: MIC by micro-dilution (BSAC); type: cell-based
S. aureus 1195 = experiment: MIC by micro-dilution (BSAC); type: cell-based
[7] = system: Staphylococcal isolates associated with joint or tissue infections; experiment: deferred antagonism method, inhibition of clinical Staphylococcal isolates; type: cell-based, Staphylococci; design: key to Inhibition caused by NI01: NI indicates no inhibition; 1+: on a score of 1-3; 2+: on a score of 1-3; 3+: on a score of 1-3
[8] = system: clinical biofilm forming strains of CNS Staphylococci species associated with prosthetic joint infections; experiment: passaging in sub-inhibitory concentrations; type: cell-based; conditions: for MIC after passaging: sub-inhibitory concentrations
[9] = following treatment with protease
[10] = Strain 11, gentamicin and methicillin resistant clinical isolate
[11] = Strain 12, gentamicin resistant clinical isolate

## peptide NI01: antimicrobial peptide (bacteriocin, SEQ ID NO:3) obtained from a Staphylococcal culture; C terminal sequence QSFEWIYKQIKKLWA (MAAFMKLIQFLATKGQKYVSLAWKHKGTILKWINAGQSFEWIYKQIKKLWA; NOI01 polypeptide)
[1]; Vancomycin resistant Enterococcus faecalis 1
  MIC: 1 mg/L
[1]; Vancomycin resistant Enterococcus faecalis 2
  MIC: 1 mg/L
[1]; Vancomycin resistant Enterococcus faecalis 3
  MIC: 1 mg/L
[1]; Vancomycin resistant Enterococcus faecalis 4
  MIC: 1 to 2 mg/L
[1]; Vancomycin resistant Enterococcus faecalis 5
  MIC: 0.5 to 1 mg/L
[1]; Vancomycin resistant Enterococcus faecalis 6
  MIC: 0.5 mg/L
Streptococcus mutans; Streptococcus mutans 263
  MIC: 2 mg/L
Streptococcus mutans; Streptococcus mutans 313
  MIC: 0.12 mg/L
S. hominis
  MIC: 1 mg/L
S. epidermidis; S. epidermidis RP62a
  MIC: 2 to 4 mg/L
S. epidermidis; S. epidermidis s1
  MIC: 1 mg/L
S. epidermidis; S. epidermidis s2
  MIC: 4 mg/L
S. epidermidis; S. epidermidis s37
  MIC: 2 mg/L
S. epidermidis; S. epidermidis s42
  MIC: 2 mg/L
S. epidermidis; S. epidermidis s44
  MIC: 4 mg/L
S. epidermidis; S. epidermidis s60
  MIC: 2 mg/L
S. epidermidis; S. epidermidis s93
  MIC: 2 mg/L
S. epidermidis; S. epidermidis s156
  MIC: 0.0625 mg/L
S. warneri
  MIC: 1 mg/L
Bacillus cereus
  MIC: <0.125 mg/L
Listeria monocytogenes
  MIC: <0.125 mg/L
[2]; [9]
  activity after treatment: 160 AU/ml
  reduction in activity: 75%
[2]; partially purified peptide, starting activity
  activity before enzyme treatment: 640 AU/ml
[2]; treatment with trypsin
  activity after treatment: 320 AU/ml
  reduction of activity: 50%
S. epidermidis s42 [3]
  effect on membrane potential: rapidly depolarized the membrane
pH stability; acidic pH 2
  activity lost: about 5%
pH stability; alkaline pH 10
  activity lost: 12%
pH stability; between pH 4-8
  activity retained: 100%
Strain 156 biofilm
  reduction of biofilm on coated versus uncoated polyethylene beads: 2.85 log units
Enterococcus faecalis
  MIC: 1 mg/L
Propionibacterium acnes
  activity against Propionibacterium acnes: activity
S. epidermidis s42 [4]
  ATP released: > 65 % of positive control
MRSA (EMRSA 15); MRSA s37 (EMRSA 15)
  MIC: 1 to 2 mg/L
MRSA (EMRSA 15); MRSA s41 (EMRSA 15)
  MIC: 1 to 2 mg/L
MRSA (EMRSA 15); MRSA s71 (EMRSA 15)
  MIC: 2 mg/L
Vero cells
  cells that looked apoptotic: 10-20%
  damage to vero cells: No significant damage
Bacillus subtillis
  MIC: <0.125 mg/L
S. epidermidis s42 [5]
  potassium release: 100 % of positive control
[6]
  mutation (single-step mutation tests): < 1.5×10^8 cfu/ml
S. epidermidis 156; at least 150 small cocci per field prior to addition
  stained cells per field of view (Gram stain) following addition of peptide: less than 20 cells per field of view
S. epidermidis 156; from cfu count and optical density
  type of activity against the target bacterium: bactericidal, but non-lytic
S. epidermidis 156; peptide added at T=30, decrease not as pronounced in optical density
  cfu count after addition of peptide: rapid decrease
S. saprophyticus
  MIC: 0.5 to 1 mg/L
haemolysis
  haemolysis: not haemolytic
S. aureus 1195
  MIC: 2 mg/L
[7]; isolate 5133, Tissue (acetabulum), resistance: flu
  Inhibition caused by NI01: 2+
[7]; isolate S1, Tissue, resistance: meth, pen, ery, amp, flu, gen, trim, cip
  Inhibition caused by NI01: 2+
[7]; isolate S2, Joint fluid, resistance: pen, ery, amp, flu, gen, trim, cip
  Inhibition caused by NI01: 2+
[7]; isolate S4, Tissue, resistance: meth, flu, gen, trim
  Inhibition caused by NI01: 3+
[7]; isolate S5, Tissue, resistance: met
  Inhibition caused by NI01: 3+
[7]; isolate S6, Femoral canal, resistance: flu, ery, gen, rif, cip
  Inhibition caused by NI01: 1+
[7]; isolate S7, Femoral canal, sensitive
  Inhibition caused by NI01: 1+
[7]; isolate S8, Tissue, resistance: flu, ery, gen, rif, cip
  Inhibition caused by NI01: 1+
[7]; isolate S9, Tissue, resistance: flu, ery, gen, rif, cip
  Inhibition caused by NI01: 3+
[7]; isolate S10, Tissue, resistance: flu, ery, gen, rif, cip
  Inhibition caused by NI01: 1+
[7]; isolate S11, Tissue, resistance: flu, ery, gen, rif, cip
  Inhibition caused by NI01: 2+
[7]; isolate S12, Tissue, resistance: flu, ery, rif, cip
  Inhibition caused by NI01: 1+
[7]; isolate S13, Swab, resistance: flu, ery, gen, rif, cip
  Inhibition caused by NI01: 1+
[7]; isolate S25, Swab (left hip joint), resistance: meth, gen
  Inhibition caused by NI01: 2+
[7]; isolate S28, Tissue (femoral canal), resistance: meth, gen
  Inhibition caused by NI01: 3+
[7]; isolate S30, Tissue (left capsule), resistance: meth
  Inhibition caused by NI01: 3+
[7]; isolate S31, Swab (joint), sensitive
  Inhibition caused by NI01: 2+
[7]; isolate S37, Tissue (knee), sensitive
  Inhibition caused by NI01: 2+
[7]; isolate S39, Tissue (right knee), resistance: meth, flu, fus, cip
  Inhibition caused by NI01: 1+
[7]; isolate S40, Tissue (right knee), resistance: meth, flu, ery, fus, clin, cip
  Inhibition caused by NI01: 1+
[7]; isolate S41, Tissue (femoral canal), resistance: meth, flu, fus, cip
  Inhibition caused by NI01: 1+
[7]; isolate S42, Tissue (right knee), resistance: meth, flu, fus, cip
  Inhibition caused by NI01: NI
[7]; isolate S43, Swab (right hip joint), resistance: meth, flu, ery, fus, clin, cip
  Inhibition caused by NI01: NI
[7]; isolate S44, Swab (right hip joint), resistance: meth, flu, ery
  Inhibition caused by NI01: NI
[7]; isolate S46, Swab (right hip joint), resistance: meth, flu, gen, fus, cip
  Inhibition caused by NI01: NI
[7]; isolate S47, Swab (tibia), resistance: meth, flu, ery, gen, fus, cip
  Inhibition caused by NI01: NI
[7]; isolate S48, Tissue (left knee), resistance: meth, flu, ery, gen, fus, cip
  Inhibition caused by NI01: 1+
[7]; isolate S49, Tissue (left knee), resistance: meth, flu, ery, gen, fus, cip
  Inhibition caused by NI01: 2+
[7]; isolate S52, Tissue (right hip joint), resistance: gen, cip
  Inhibition caused by NI01: 2+
[7]; isolate S53, Swab (femur), resistance: gen, cip, fus
  Inhibition caused by NI01: 2+
[7]; isolate S56, Tissue (right hip joint), sensitive
  Inhibition caused by NI01: 2+
[7]; isolate S60, Tissue (femur), resistance: gen, trim
  Inhibition caused by NI01: NI
[7]; isolate S71, Swab (femur), resistance: flu
  Inhibition caused by NI01: 2+
[7]; isolate S78, Tissue (right elbow), resistance: flu, ery
  Inhibition caused by NI01: 1+
[7]; isolate S79, Pus (right elbow), resistance: meth, flu, ery
  Inhibition caused by NI01: 1+
[7]; isolate S80, Tissue (triceps), resistance: flu, ery
  Inhibition caused by NI01: 1+
[7]; isolate S81, Pus (right elbow), resistance: flu, ery
  Inhibition caused by NI01: 1+
[7]; isolate S82, Tissue (right elbow), resistance: flu, ery
  Inhibition caused by NI01: 1+
[7]; isolate S83, Tissue (next to bone), resistance: flu, ery
  Inhibition caused by NI01: 1+
[7]; isolate S85, Tissue (left elbow), resistance: meth, ery
  Inhibition caused by NI01: 1+
[7]; isolate S86, Swab (right elbow), sensitive
  Inhibition caused by NI01: 2+
[7]; isolate S88, Swab (left hip), sensitive
  Inhibition caused by NI01: 1+
[7]; isolate S89, Tissue (right elbow), resistance: meth, flu, ery
  Inhibition caused by NI01: 1+
[7]; isolate S90, Ulcer, resistance: flu, ery
  Inhibition caused by NI01: 2+
[7]; isolate S91, Swab (right acetabulum), resistance: flu
  Inhibition caused by NI01: 2+
[7]; isolate S92, Swab (femur), resistance: flu
  Inhibition caused by NI01: 1+
[7]; isolate S93, Tissue (wound), resistance: flu, ery, gen, fus
  Inhibition caused by NI01: NI
[7]; isolate S94, Tissue (right femur), resistance: flu
  Inhibition caused by NI01: 3+
[7]; isolate S95, Tissue (right femur), resistance: flu, trim
  Inhibition caused by NI01: 3+
[7]; isolate S96, Tissue (right femur), resistance: flu
  Inhibition caused by NI01: 1+
[7]; isolate S97, Tissue (acetabulum), resistance: flu
  Inhibition caused by NI01: 3+
[7]; isolate S106, Neck of femur, resistance: ery, fus
  Inhibition caused by NI01: 3+
[7]; isolate S127, Tissue (screw holes), resistance: flu
  Inhibition caused by NI01: 1+
[7]; isolate S128, Tissue (under plate), resistance: meth, flu
  Inhibition caused by NI01: 1+
[7]; isolate S156, Tissue (acetabulum), resistance: ery, fus
  Inhibition caused by NI01: 3+
[7]; isolate S159, Swab (right thigh), resistance: meth, flu, ery
  Inhibition caused by NI01: 1+
[7]; isolate S160, Swab (right hip), resistance: meth, flu, gen
  Inhibition caused by NI01: 2+
[7]; isolate S161, Swab (right hip sinus), resistance: flu, ery, gen, fus, cip
  Inhibition caused by NI01: 2+
[7]; isolate S163, Tissue (right hip), resistance: flu, ery, gen, fus, cip
  Inhibition caused by NI01: 1+
[7]; isolate S164, Tissue (right hip), resistance: ery, fus, amp, clin
  Inhibition caused by NI01: NI
[7]; isolate Staphylococcus epidermis 156, biofilm forming, from infected acetabulum tissue, over a 100 hour period (FIG. 5)
  inhibitory effect, score: +3
[7]; isolates associated with joint and/or tissue infections, summary of Table 1
  clinical biofilm forming isolates of Staphylococci inhibited: 58 out of the 60
[7]; summary of Table 1
  clinical biofilm forming isolates of Staphylococci inhibited, percent: 91%
[8]; [10]
  MIC before passaging: 7800 mg/L
  MIC after passaging: 15600 mg/L
[8]; [11]
  MIC before passaging: 3900 mg/L
  MIC after passaging: 7800 mg/L
[8]; all of the other strains tested (of twelve)
  change in MIC after passaging: no change
